Experimental data from PubChem BioAssay (NCI).
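Where inhibition never reached the appropriate level, the endpoint shown equals the highest concentration tested. Otherwise, values were interpolated linearly from a five-concentration, 48-hour dose response in 96-well plates. GI50 = concentration required for 50% inhibition of growth. TGI denotes the concentration required for complete inhibition of growth.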

What was measured:
Test in all cases: NCI anticancer screen, dose series, 48 h
[1] = tested on: OVCAR-8 ovarian
[2] = tested on: OVCAR-3 ovarian
[3] = tested on: SK-MEL-28 melanoma
[4] = tested on: NCI-H460 lung
[5] = tested on: 786-0 renal
[6] = tested on: HL-60(TB) leukemia
[7] = tested on: SR leukemia
[8] = tested on: CCRF-CEM leukemia
[9] = tested on: IGROV1 ovarian
[10] = tested on: A549 NSCLC

SMILES	GI50 [1] [µM]	TGI [1] [µM]	GI50 [2] [nM]	TGI [2] [µM]	GI50 [3] [nM]	TGI [3] [µM]	GI50 [4] [nM]	TGI [4] [µM]	GI50 [5] [µM]	TGI [5] [µM]	GI50 [6] [nM]	TGI [6] [µM]	GI50 [7] [nM]	TGI [7] [µM]	GI50 [8] [nM]	TGI [8] [µM]	GI50 [9] [nM]	TGI [9] [µM]	GI50 [10] [µM]	TGI [10] [µM]
Cc1cc(C)c(S(=O)(=O)Oc2ccccc2[N+](=O)[O-])c(C)c1	4.28	> 100	1000	3.63	5460	> 100	2400	> 100	5.58	> 100	367	2.5	443	> 100	2150	> 100	2680	> 100	4.19	> 100
S=C1SC2(CCCCCC2)NC2=C1CCCCC2	–	> 100	–	> 100	–	> 100	–	77.9	–	> 100	–	38.5	–	80.4	–	> 100	–	> 100	–	> 100
CCCCC/C=C1\CCC(CN2CCOCC2)C1=O (stereo not drawn)	–	13	–	12.2	–	21.2	–	49.8	–	7.17	–	24.2	–	12.1	–	29.9	–	33	–	39.4
C=C(C)[C@@H]1CC[C@]2(c3ncc(C)o3)CC[C@]3(C)[C@H](CC[C@@H]4[C@@](C)(CCC#N)[C@H](C(=C)C)CC[C@]43C)[C@@H]12	6.57	21.9	4160	15.5	5420	18.4	5420	19.4	8.23	23.4	2490	6.83	2750	> 100	2930	10.2	5070	19.1	6.19	22.3
CCC1(c2ccncc2)CCC(=O)NC1=O (stereo not drawn)	–	> 100	–	> 100	–	> 100	–	> 100	–	> 100	–	> 100	–	> 100	–	> 100	–	> 100	–	> 100
CCOc1ccccc1N=C(NC(=O)CC)SC	> 10	> 100	> 100000	> 100	> 100000	> 100	> 100000	> 100	> 100	> 100	> 100000	> 100	> 100000	> 100	> 10000	> 100	> 100000	> 100	> 100	> 100
CCCCn1c(=O)c(/C=C/C(=O)/C=C/c2ccc(O)c(OC)c2)cc2ccc(Cl)cc21	2.47	9.49	1700	3.24	1930	4.12	1960	4.17	1.77	3.31	2340	13.4	2040	17.6	2790	22	1920	4.1	1.72	4.84
CN1C(=O)NC2(O)c3ccccc3C(=O)C12O (stereo not drawn)	–	> 100	–	> 100	–	> 100	–	> 100	–	> 100	–	> 100	–	> 100	–	> 100	–	> 100	–	> 100
COc1ccc(CNCCCN2C(=O)c3ccc4c5c(ccc(c35)C2=O)C(=O)N(CCCNCCCCNCCCN)C4=O)c(OC)c1OC	0.618	8.2	1170	2.48	1890	4.81	703	7.03	3.53	22.5	2730	13.1	1310	17.4	1940	17.8	1540	12.5	1.69	16.1
COc1cccc2c1C(=O)c1c(O)c3c(c(O)c1C2=O)C[C@@](O)(C(=O)COC(=O)c1cccnc1)C[C@@H]3OC1CC(N)C(O)C(C)O1 (stereo partly drawn)	0.183	4.85	287	2.52	203	0.689	26.9	0.215	0.14	1.25	146	1.64	17.3	2.4	57.4	1.19	121	3.79	0.0774	0.533
CC(C)(C)c1cc2c(OP(c3ccccc3)c3ccccc3)c(c1)Cc1cc(C(C)(C)C)cc(c1OP(c1ccccc1)c1ccccc1)Cc1cc(C(C)(C)C)cc(c1OP(c1ccccc1)c1ccccc1)Cc1cc(C(C)(C)C)cc(c1OP(c1ccccc1)c1ccccc1)C2	> 50	> 50	> 50000	> 50	> 50000	> 50	> 50000	> 50	> 50	> 50	> 50000	> 50	–	> 5	44600	> 50	> 50000	> 50	> 50	> 50
CC(C)C(OC(=O)c1cc(NC(=S)c2ccccc2)ccc1Cl)C(C)C	–	> 100	–	52.5	–	> 90	–	47.4	–	50.8	–	55.8	–	> 60.8	–	> 96.7	–	> 100	–	> 94.7
COc1cc2c(c(OC)c1OC)C(=O)c1c-2n(CCCN)c(=O)c2cc([N+](=O)[O-])ccc12	–	–	1060	2.4	1760	3.97	562	–	0.481	1.04	4500	10.9	2410	5.44	285	0.834	1430	3.05	–	–
Cc1ccc2nc(NC(=O)CSC(=S)N3CCN(Cc4ccccc4)CC3)sc2c1	> 100	> 100	> 100000	> 100	> 100000	> 100	> 100000	> 100	> 100	> 100	> 83600	> 100	> 100000	> 100	> 100000	> 100	> 100000	> 100	> 100	> 100
O=c1c2cc(-c3ccccc3)sc2nc2sc(-c3ccccc3)nn12	–	> 100	–	> 100	–	–	–	> 100	–	> 100	–	> 100	–	> 100	–	> 100	–	> 100	–	> 100
